# Laboratory results from US11045480B2, “Anti-huLRRC15 antibody drug conjugates and methods for their use” (AbbVie Inc., priority 2015, dated 2021).
# T1: huLRRC15 (Homo sapiens, UniProt Q8TF66)
# T1 construct: endogenous in cells; host or cells: U118MG glioblastoma cells
# T1 sequence (Q8TF66 22-581): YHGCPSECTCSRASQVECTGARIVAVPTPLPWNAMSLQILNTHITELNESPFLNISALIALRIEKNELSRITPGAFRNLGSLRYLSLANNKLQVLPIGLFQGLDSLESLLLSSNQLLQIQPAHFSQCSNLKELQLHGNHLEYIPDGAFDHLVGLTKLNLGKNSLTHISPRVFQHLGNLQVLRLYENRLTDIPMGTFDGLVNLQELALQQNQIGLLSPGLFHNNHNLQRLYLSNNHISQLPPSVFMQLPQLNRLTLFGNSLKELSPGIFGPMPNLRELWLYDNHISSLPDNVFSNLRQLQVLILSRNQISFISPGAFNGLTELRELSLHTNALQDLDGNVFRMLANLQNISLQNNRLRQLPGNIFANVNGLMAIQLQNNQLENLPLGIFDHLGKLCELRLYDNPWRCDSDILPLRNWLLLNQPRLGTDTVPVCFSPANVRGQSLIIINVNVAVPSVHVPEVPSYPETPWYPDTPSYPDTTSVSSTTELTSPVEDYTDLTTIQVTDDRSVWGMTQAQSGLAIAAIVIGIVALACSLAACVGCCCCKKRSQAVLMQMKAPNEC
# Columns and labels:
# [1] = tested on: EBC-1 (human squamous NSCLC) xenograft; experiment: EBC-1 xenograft tumor growth; assay type: in vivo, mouse
# Experimental: For the experiments, five million cells (EBC-1) that were grown in vitro were inoculated subcutaneously per mouse into the right flank of female SCID-Beige mice. Tumors were size matched at ˜200 mm^3, and dosed intraperitoneally (IP) Q4D×6 (1 dose given every 4 days for a total of 6 doses) as shown in FIG. 13A. Measurements of the length (L) and width (W) of the tumors were taken via electronic caliper and the volume was calculated according to the following equation: V=L×W^2/2.
# For this experiment, tumors were size matched at ˜200 mm^3, and dosed intraperitoneally (IP) Q7D×2 (1 dose given every 7 days for a total of 2 doses) as shown in FIG. 13C. […]
# 5 million cells were implanted subcutaneously into SCID/Beige mice, and mice were randomized when tumor group mean volumes reached ˜200 mm^3.
# In FIG. 20C, EBC1 cells (5 million) were implanted subcutaneously into SCID/Beige mice and mice were randomized when the tumors reached ˜200 mm^3 and dosed with biologics at 6 mg/kg intraperitoneally on a Q7D×2 (one dose given every 7 days for a total of 2 doses), while erlotinib was dosed orally daily for 10 days at 50 mg/kg, and carboplatin was dosed intraperitoneally Q4D×3 (one dose given every 4 days for a total of 3 doses) at 50 mg/kg.
# In FIG. 21B, EBC-1 squamous NSCLC cells (5 million) were implanted subcutaneously into SCID/Beige mice, and mice were randomized when the tumors reached ˜200 mm^3 and dosed with biologics at 6 mg/kg intraperitoneally on a Q7D×2 (one dose given every 7 days for a total of 2 doses), while gemcitabine was dosed intraperitoneally at 100 mg/kg (Q3D×3) (one dose given every three days for 3 doses total).
# [2] = tested on: NCI-H1650 (NSCLC) xenograft; experiment: NCI-H1650 xenograft tumor growth; assay type: in vivo, mouse; settings: NCI-H1650, SCID/Beige mice; for TGD, single agent / TGImax, single agent: biologics 6 or 12 mg/kg IP Q4D×6, erlotinib 100 mg/kg orally daily ×10, carboplatin 50 mg/kg IP Q4D×4 (FIG. 20A, 22A)
# Experimental: The potency of anti-huLRRC15 ADCs as compared to current standards of care was assessed in xenograft models with NCI-H1650 ([…]), HN5 (head and neck), EBC-1 (squamous NSCLC), NW231 (breast) and PANC1 (pancreatic) cancer cells. […] For FIG. 20A, NCI-H1650 cells (5 million cells) were implanted subcutaneously into SCID/Beige mice and tumors were randomized when they reached ˜200 mm^3 and dosed with biologics at 6 or 12 mg/kg intraperitoneally on a Q4D×6 (one dose given every 4 days for a total of 6 doses), while erlotinib was dosed orally daily for 10 days at 100 mg/kg, and carboplatin was dosed intraperitoneally Q4D×4 (one dose given every 4 days for a total of 4 doses) at 50 mg/kg.
# NCI-H1650 NSCLC cancer cells (5 million) were implanted subcutaneously into SCID/Beige mice, and mice were randomized when the tumors reached ˜200 mm^3 and dosed with biologics at 6 or 12 mg/kg intraperitoneally on a Q4D×6 (one dose given every 4 days for a total of 6 doses), while erlotinib was dosed orally daily at 100 mg/kg for 10 doses.
# NCI-H1650 NSCLC cancer cells (5 million) were implanted subcutaneously into SCID/Beige mice, and mice were randomized when the tumors reached ˜200 mm^3 and dosed on day 0 with isotype or ADC at 0.1, 0.3, or 0.6 mg/kg intraperitoneally.
# NCI-H1650 adeno NSCLC cells (5 million) were implanted subcutaneously into SCID/Beige mice, and mice were randomized when the tumors reached ˜225 mm^3 and dosed with ADC at 0.6 mg/kg or isotype antibody at 12 mg/kg intraperitoneally once on day 0.
# [3] = tested on: SCC-15 head and neck cancer xenograft; experiment: SCC-15 xenograft tumor growth; assay type: in vivo, mouse; settings: SCC-15, SCID mice; biologics 12 mg/kg IP Q7D×6; carboplatin 50 mg/kg IP Q4D×4 (FIG. 21E)
# Experimental: Radiation is a commonly used cytotoxic therapy in oncology. […] SCC-15 head and neck cancer cells (1 million) were implanted subcutaneously into SCID mice, and mice were randomized when the tumors reached ˜200 mm^3 and dosed with biologics at 12 mg/kg intraperitoneally on a Q4D×6 (one dose given every 4 days for a total of 6 doses), while the radiation was directed at the tumor with a single radiation dose of 15 Gy on day 0.
# SCC-15 head and neck cancer cells (1 million) were implanted subcutaneously into SCID mice, and mice were randomized when the tumors reached ˜200 mm^3 and dosed with biologics at 12 mg/kg intraperitoneally on a Q7D×6 (one dose given every 7 days for a total of 6 doses), while carboplatin was dosed intraperitoneally […] at 50 mg/kg Q4D×4 (one dose given every 4 days for a total of 4 doses).
# [4] = tested on: EBC-1 (human squamous NSCLC) xenograft; experiment: EBC-1 xenograft tumor growth; assay type: in vivo, mouse; settings: EBC-1, SCID/Beige mice; huM25-vcMMAE-E2 at 3 mg/kg (method: biologics 6 mg/kg IP Q7D×2); method: gemcitabine 100 mg/kg IP Q3D×3, result sentence names docetaxel (FIG. 21B)
# [5] = tested on: NW231 breast cancer xenograft; experiment: NW231 xenograft tumor growth; assay type: in vivo, mouse; settings: NW231, SCID mice; biologics 12 mg/kg IP Q4D×6; doxorubicin 1 mg/kg IV days 0, 4, 8, 13, 18 (FIG. 20D)
# Experimental: In FIG. 20D, NW231 breast cancer cells (10 million) were implanted subcutaneously into SCID mice, and mice were randomized when the tumors reached ˜150 mm^3 and dosed with biologics at 12 mg/kg intraperitoneally on a Q4D×6 (one dose given every 4 days for a total of 6 doses), while doxorubicin was dosed intravenously at 1 mg/kg on days 0, 4, 8, 13 and 18.
# [6] = tested on: HN5 (head and neck) xenograft; experiment: HN5 xenograft tumor growth; assay type: in vivo, mouse; settings: HN5, NSG mice; ADC 4.5 mg/kg IP Q4D×6; erlotinib 150 mg/kg orally daily ×10; cetuximab 3 mg/kg IP Q7D×3 (FIG. 20B)
# [7] = tested on: HPAF-II (human pancreatic) xenograft; experiment: HPAF-II xenograft tumor growth; assay type: in vivo, mouse; settings: SCID mice, biologics 6 mg/kg IP Q4D×6, gemcitabine 100 mg/kg IP (Q3D×4)×2 (FIG. 21A)
# Experimental: For the experiment, 1 million cells (HPAF-II) that were grown in vitro were inoculated subcutaneously per mouse into the right flank of female SCID-Beige mice. Tumors were size matched at ˜200 mm^3, and dosed intraperitoneally (IP) Q4D×6 (1 dose given every 4 days for a total of 6 doses) as shown in FIG. 13B.
# In FIG. 21A, HPAF-II pancreatic cancer cells (1 million) were implanted subcutaneously into SCID mice, and mice were randomized when the tumors reached ˜200 mm^3 and dosed with biologics at 6 mg/kg intraperitoneally on a Q4D×6 (one dose given every 4 days for a total of 6 doses), while gemcitabine was dosed intraperitoneally at 100 mg/kg (Q3D×4)×2 (one dose given every three days for 4 doses per cycle, 2 cycles with 8 total doses given).
# [8] = tested on: PANC1 (pancreatic) xenograft; experiment: PANC1 xenograft tumor growth; assay type: in vivo, mouse; settings: PANC1, SCID mice; biologics 12 mg/kg IP Q4D×6; gemcitabine 100 mg/kg IP Q3D×4 (FIG. 20E)
# Experimental: In FIG. 20E, PANC1 pancreatic cancer cells (10 million) were implanted subcutaneously into SCID mice, and mice were randomized when the tumors reached ˜125 mm^3 and dosed with biologics at 12 mg/kg intraperitoneally on a Q4D×6 (one dose given every 4 days for a total of 6 doses), while gemcitabine was dosed intraperitoneally at 100 mg/kg Q3D×4) (one dose given every three days for 4 doses total).
# [9] = tested on: human BM-MSC (Lonza); experiment: In vitro cell killing of human mesenchymal stem cells with TGFβ; assay type: cell-based; settings: human BM-MSC (Lonza) treated with 10 ng/mL TGFβ (FIG. 23B)
# [10] = target: T1, huLRRC15; experiment: Flow cytometry competition assay against labeled muM25 (muM25-AF488) on U118MG cells; assay type: binding; settings: 1 μg/mL muM25-AF488, unlabeled test antibody 0.0001-100 μg/mL
# Description: Isotype control antibodies (human or mouse) were used as negative controls, and unlabeled muM25 was used as a positive control.
# In this assay, competition due to a test antibody binding to the same or a proximal epitope as the labeled reference antibody reduce binding of the reference labeled antibody.
# [11] = EBC1, SCID/Beige mice, biologics 6 mg/kg IP Q7D×2, erlotinib 50 mg/kg orally daily ×10, carboplatin 50 mg/kg IP Q4D×3 (FIG. 20C)
# [12] = EBC-1, SCID/Beige mice, biologics 3 or 6 mg/kg IP Q4D×6, method: docetaxel 7.5 mg/kg IV, result sentence names gemcitabine (FIG. 21C)
# [13] = EBC-1, SCID mice, 0.6 mg/kg Q7D×2 (FIG. 24H)
# [14] = 0.6 mg/kg IP once on day 0 (FIG. 24G)
molecule,measurement,setting,value
"N.N.O=C([O-])C1(C(=O)[O-])CCC1.[Pt+2] [carboplatin, reference compound]",TGD,[1]; [11],43%
same,TGImax,[1]; [11],39%
same,"TGD, single agent",[2],77%
same,"TGImax, single agent",[2],56%
same,"TGD, single agent",[3],33%
same,"TGImax, single agent",[3],56%
"CC(=O)O[C@@]12CO[C@@H]1C[C@H](O)[C@@]1(C)C(=O)[C@H](O)C3=C(C)[C@@H](OC(=O)[C@H](O)[C@@H](NC(=O)OC(C)(C)C)c4ccccc4)C[C@@](O)([C@@H](OC(=O)c4ccccc4)[C@H]21)C3(C)C [docetaxel, reference compound]","TGD, single agent","[1]; EBC-1, SCID/Beige mice, huM25-vcMMAE-E2 at 3 mg/kg (method: biologics 6 mg/kg IP Q7D×2), method: gemcitabine 100 mg/kg IP Q3D×3, result sentence names docetaxel (FIG. 21B)",48%
same,"TGImax, single agent",[4],77%
"COc1cccc2c1C(=O)c1c(O)c3c(c(O)c1C2=O)C[C@@](O)(C(=O)CO)C[C@@H]3O[C@H]1C[C@H](N)[C@H](O)[C@H](C)O1 [doxorubicin, reference compound]",TGImax,[5],65%
"C#Cc1cccc(Nc2ncnc3cc(OCCOC)c(OCCOC)cc23)c1 [erlotinib, reference compound]",TGD,[1]; [11],14%
same,TGImax,[1]; [11],27%
same,"TGD, single agent",[2],77%
same,"TGImax, single agent",[2],90%
same,TGD,[6],12%
same,TGImax,[6],23%
"Nc1ccn([C@@H]2O[C@H](CO)[C@@H](O)C2(F)F)c(=O)n1 [gemcitabine, reference compound]","TGD, single agent",[1]; [12],171%
same,"TGImax, single agent",[1]; [12],95%
same,"TGD, single agent",[7],117%
same,"TGImax, single agent",[7],73%
same,TGImax,[8],55%
huAD208.4.1-PBD-DAR2: PBD synthon vaPBD conjugated with anti-huLRRC15 antibody huAD208.4.1 to yield a DAR of 2 (conjugate) VH: EVQLVQSGAEVKKPGSSVKVSCKASGFTFTDYYIHWVKQAPGQGLEWIGLVYPYIGGTNYNQKFKGKATLTVDTSTTTAYMEMSSLRSEDTAVYYCARGDNKYDAMDYWGQGTTVTVSS VL: DIVLTQSPDSLAVSLGERATINCRASQSVSTSSYSYMHWYQQKPGQPPKLLIKYASSLESGVPDRFSGSGSGTDFTLTISSLQAEDVAVYYCEQSWEIRTFGGGTKVEIK,TGD,[1]; [13],> 600%
same,TGImax,[1]; [13],91%
same,TGD,[2]; [14],> 388%
same,TGImax,[2]; [14],95%
same,cell killing effect relative to isotype-PBD-DAR2 at the same doses,[9],higher cell killing effect
"muAD209.9.1: murine anti-huLRRC15 antibody; VH SEQ ID NO:76, VL SEQ ID NO:77 (antibody, V domains shown) VH: QIQLVQSGPELKKPGETVKISCKASGFAITNFGMNWVKQAPGKGLKWMGWINLYTGEPTFADDFKGRFAFSLETSASTAYLQINNLKNEDTVIYFCARKGETYYRYDGFAYWGQGTLVTVSA VL: DIVMTQAAPSVPVTPGESVSISCRSSKSLLHSNGNTHLYWFLQRPGQSPQLLIYRMSNLASGVPDRFSGSGSGTAFTLRISRVEAEDVGVYYCMQLLEYPYTFGGGTKLEIE",competition with labeled muM25 for binding cells expressing huLRRC15,[10],do not inhibit
